The results in this text go back to patent US12486278B2, “MASP-2 inhibitors and methods of use” (Omeros Corporation, priority 2019, dated 2025).

SMILES strings stand for the structures. Counter-ions that a name gives are not always drawn.

T1 sequence (O00187 445-686 limits assumed): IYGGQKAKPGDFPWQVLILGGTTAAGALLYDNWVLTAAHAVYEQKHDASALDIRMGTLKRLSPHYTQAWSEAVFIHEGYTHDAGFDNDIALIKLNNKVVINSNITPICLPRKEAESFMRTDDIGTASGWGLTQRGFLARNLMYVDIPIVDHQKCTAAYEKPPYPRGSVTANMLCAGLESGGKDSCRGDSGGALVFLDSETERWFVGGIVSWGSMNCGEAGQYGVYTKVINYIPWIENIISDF
T1 sequence (O00187 298-444 partner limits assumed): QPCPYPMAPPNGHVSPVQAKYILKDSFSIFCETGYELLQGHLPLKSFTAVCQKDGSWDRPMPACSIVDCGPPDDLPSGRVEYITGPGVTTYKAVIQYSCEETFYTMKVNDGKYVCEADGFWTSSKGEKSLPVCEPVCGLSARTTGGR

This assay has as its target T1, MASP-2 (CCP1-CCP2-SP) (Homo sapiens, UniProt O00187).
T1 construct: 15 μL of Enzyme MASP-2 (CCP1-CCP2-SP) in Assay Buffer
Nature of the assay: Enzymatic Assay for MASP-2 (fluorogenic substrate). The format is biochemical. To be noted: fluorogenic substrate based on C2 cleavage site; room temperature, 20 min; 20 mM HEPES pH 7.4, 140 mM NaCl, 0.1% Tween 20. In a few lines:
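Fluorogenic substrate built on the C2 cleavage site, in 20 mM HEPES pH 7.4, 140 mM NaCl, 0.1% Tween 20, run at room temperature for 20 min before an acetic acid stop. Fluorescence normalised to DMSO-only and no-enzyme controls; IC50 taken as equivalent to Ki, with tight- or slow-binding inhibitors treated separately.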
The term Ki denotes a dissociation constant, usually derived from enzyme kinetics or from competition with a known ligand. A high value points to a looser hold on the target. `C[C@H](NC(=O)[C@H]1C[C@@H](c2ccccc2)CCN1CCNS(C)(=O)=O)C(=O)NCc1cc2cnccc2[nH]1` [Compound I-42, (2R,4S)—N—((S)-1-(((1H-Pyrrolo[3,2-C]Pyridin-2-Yl)Methyl)Amino)-1-Oxopropan-2-Yl)-1-(2-(Methylsulfonamido)Ethyl)-4-Phenylpiperidine-2-Carboxamide Di-Trifluoroacetate] had a Ki of less than 500 nM.

`C[C@H](NC(=O)[C@H]1C[C@H](Cc2ccc(Cl)s2)CN1)C(=O)NCc1cnc2c(c1)c(Cl)cn2C` [Compound I-84, (2R,4R)—N—((S)-1-(((3-Chloro-1-Methyl-1H-Pyrrolo[2,3-B]Pyridin-5-Yl)Methyl)Amino)-1-Oxopropan-2-Yl)-4-((5-Chlorothiophen-2-Yl)Methyl)Pyrrolidine-2-Carboxamide Dihydrochloride] returned a Ki of less than 500 nM. `C[C@H](NC(=O)[C@H]1C[C@H](c2ccccc2)CN1)C(=O)NCc1[nH]c2ccncc2c1F` [Compound I-7, (2R,4R)—N—((S)-1-(((3-Fluoro-1H-Pyrrolo[3,2-C]Pyridin-2-Yl)Methyl)Amino)-1-Oxopropan-2-Yl)-4-Phenylpyrrolidine-2-Carboxamide Di-Trifluoroacetate] had a Ki of less than 500 nM. As for `Cc1cc(C)n(-c2ccc([C@H]3CCN[C@@H](C(=O)N[C@@H](C)C(=O)NCc4ccc(C(=N)N)cc4)C3)cc2)n1` [Compound I-75, (2R,4S)—N—((S)-1-((4-Carbamimidoylbenzyl)Amino)-1-Oxopropan-2-Yl)-4-(4-(3,5-Dimethyl-1H-Pyrazol-1-Yl)Phenyl)Piperidine-2-Carboxamide Dihydrochloride], the figure is less than 500 nM; as for `O=C(NCc1cc(Cl)ccc1-n1cnnn1)[C@@H]1CCN1C(=O)[C@H]1C[C@@H](c2ccc(-c3ccccc3)cc2)CCN1` [Compound I-103, (S)-1-((2R,4S)-4-([1,1′-Biphenyl]-4-yl)piperidine-2-carbonyl)-N-(5-chloro-2-(1H-tetrazol-1-yl)benzyl)azetidine-2-carboxamide trifluoroacetate], less than 500 nM. As for `C[C@H](NC(=O)[C@H]1C[C@@H](c2ccccc2)CCN1CCCP(=O)(O)O)C(=O)NCc1cc(Cl)ccc1-n1cnnn1` [Compound I-40, (3-((2R,4S)-2-(((S)-1-((5-Chloro-2-(1H-Tetrazol-1-Yl)Benzyl)Amino)-1-Oxopropan-2-Yl)Carbamoyl)-4-Phenylpiperidin-1-Yl)Propyl)Phosphonic Acid Di-Trifluoroacetate], the figure is 500 to 2500 nM. Take `C[C@H](NC(=O)[C@H]1C[C@H](C2(c3ccccc3)CC2)CN1)C(=O)NCc1cc2cnccc2[nH]1` [Compound I-8, (2R,4R)—N—((S)-1-(((1H-Pyrrolo[3,2-C]Pyridin-2-Yl)Methyl)Amino)-1-Oxopropan-2-Yl)-4-(1-Phenylcyclopropyl)Pyrrolidine-2-Carboxamide Di-Trifluoroacetate]: the Ki is less than 500 nM. In the case of `CCN1C[C@@H](Cc2ccc(F)c(Cl)c2)C[C@@H]1C(=O)N[C@@H](C)C(=O)NCc1cnc2c(c1)c(Cl)cn2C` [Compound I-26, (2R,4S)—N—((S)-1-(((3-Chloro-1-Methyl-1H-Pyrrolo[2,3-B]Pyridin-5-Yl)Methyl)Amino)-1-Oxopropan-2-Yl)-4-(3-Chloro-4-Fluorobenzyl)-1-Ethylpyrrolidine-2-Carboxamide], the Ki is less than 500 nM. As for `Cc1nc(N)ccc1CNC(=O)[C@H](C)NC(=O)[C@H]1C[C@H](Cc2cc(Br)c(Br)s2)CN1` [Compound I-17, (2R,4R)—N—((S)-1-(((6-Amino-2-Methylpyridin-3-Yl)Methyl)Amino)-1-Oxopropan-2-Yl)-4-((4,5-Dibromothiophen-2-Yl)Methyl)Pyrrolidine-2-Carboxamide Di-Trifluoroacetate], the figure is less than 500 nM; as for `Cc1nc(N)ccc1CNC(=O)[C@H]1CC(F)(F)CN1C(=O)[C@@H]1C[C@@H](Cc2ccc(Br)cc2)CN1` [Compound I-61, (R)—N-((6-Amino-2-Methylpyridin-3-Yl)Methyl)-1-((2S,4R)-4-(4-Bromobenzyl)Pyrrolidine-2-Carbonyl)-4,4-Difluoropyrrolidine-2-Carboxamide Dihydrochloride], less than 500 nM; as for `C[C@H](NC(=O)[C@H]1C[C@@H](c2ccccc2)CCN1)C(=O)NCc1ccc(C#N)s1` [Compound I-92, (2R,4S)—N—((S)-1-(((5-Cyanothiophen-2-yl)methyl)amino)-1-oxopropan-2-yl)-4-phenylpiperidine-2-carboxamide hydrochloride], 2500 to 10000 nM.

The compound `C[C@H](NC(=O)[C@H]1C[C@H](Cc2ccc(F)cc2)CN1CCC(=O)O)C(=O)NCc1ccc(C(=N)N)cc1` [Compound I-37, 3-((2R,4S)-2-(((S)-1-((4-Carbamimidoylbenzyl)Amino)-1-Oxopropan-2-Yl)Carbamoyl)-4-(4-Fluorobenzyl)Pyrrolidin-1-Yl)Propanoic Acid Di-Trifluoroacetate] returned a Ki of less than 500 nM.

`Cc1nc(N)ccc1CNC(=O)[C@H](C)NC(=O)[C@H]1C[C@H](Cc2cccc(C(=O)NCCCCl)c2)CN1` [Compound I-49, (2R,4S)—N—((S)-1-(((6-Amino-2-Methylpyridin-3-Yl)Methyl)Amino)-1-Oxopropan-2-Yl)-4-(3-((3-Chloropropyl)Carbamoyl)Benzyl)Pyrrolidine-2-Carboxamide Di-Trifluoroacetate] came in with a Ki of less than 500 nM. For `CCOC(=O)CCN1CC[C@H](c2ccccc2)C[C@@H]1C(=O)N[C@@H](C)C(=O)NCc1cc(Cl)ccc1-n1cnnn1` [Compound I-28, Ethyl 3-((2R,4S)-2-(((S)-1-((5-Chloro-2-(1H-Tetrazol-1-Yl)Benzyl)Amino)-1-Oxopropan-2-Yl)Carbamoyl)-4-Phenylpiperidin-1-Yl)Propanoate] the value was 2500 to 10000 nM.

In turn, `C[C@H](NC(=O)[C@H]1C[C@@H](c2ccc(-c3cccnc3)cc2)CCN1)C(=O)NCc1cc(Cl)ccc1-n1cnnn1` [Compound I-101, (2R,4S)—N—((S)-1-((5-chloro-2-(1H-tetrazol-1-yl)benzyl)amino)-1-oxopropan-2-yl)-4-(4-(pyridin-3-yl)phenyl)piperidine-2-carboxamide trifluoroacetate] registered a Ki of less than 500 nM. As for `Cc1nc(N)ccc1CNC(=O)[C@H](C)NC(=O)[C@H]1C[C@@H](c2cccc(-n3cccn3)c2)CCN1` [Compound I-78, (2R,4S)-4-(3-(1H-Pyrazol-1-Yl)Phenyl)-N—((S)-1-(((6-Amino-2-Methylpyridin-3-Yl)Methyl)Amino)-1-Oxopropan-2-Yl)Piperidine-2-Carboxamide Dihydrochloride], the figure is less than 500 nM; as for `Cc1nc(N)ccc1CNC(=O)[C@H](C)NC(=O)[C@H]1C[C@H](Cc2cccc(C3CC3)c2)CN1` [Compound I-44, (2R,4S)—N—((S)-1-(((6-Amino-2-Methylpyridin-3-Yl)Methyl)Amino)-1-Oxopropan-2-Yl)-4-(3-Cyclopropylbenzyl)Pyrrolidine-2-Carboxamide Di-Trifluoroacetate], less than 500 nM.

Consider `C[C@H](NC(=O)[C@H]1C[C@@H](c2cccc(-c3ccccc3)c2)CCN1)C(=O)NCc1ccc(C(=N)N)cc1` [Compound I-68, (2R,4S)-4-([1,1′-Biphenyl]-3-Yl)-N—((S)-1-((4-Carbamimidoylbenzyl)Amino)-1-Oxopropan-2-Yl)Piperidine-2-Carboxamide Di-Trifluoroacetate], for which the Ki was less than 500 nM.
